Results as given in PubChem BioAssay (NCI).
Values joined by “and” are separate entries in the source; they are usually repeats but may differ in a detail not shown here. Identical values can stand only once.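 48-hour exposure; five concentrations; linearly interpolated endpoints. GI50: concentration for 50% inhibition of growth. TGI: concentration producing complete growth inhibition.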

Key:
Test in all cases: DTP human tumour cell line panel, 48 h
[1] = system: IGROV1 ovarian
[2] = system: HOP-62 NSCLC
[3] = system: OVCAR-5 ovarian
[4] = system: CCRF-CEM leukemia
[5] = system: HCC-2998 colon
[6] = system: T-47D breast
[7] = system: UO-31 renal
[8] = system: ACHN renal
[9] = system: COLO 205 colon
[10] = system: PC-3 prostate

Compound | GI50 [1] [µM] | TGI [1] | GI50 [2] [µM] | TGI [2] [µM] | GI50 [3] [µM] | TGI [3] [µM] | GI50 [4] [µM] | TGI [4] | GI50 [5] [µM] | TGI [5] [µM] | GI50 [6] [µM] | TGI [6] [µM] | GI50 [7] [µM] | TGI [7] [µM] | GI50 [8] [µM] | TGI [8] [µM] | GI50 [9] [µM] | TGI [9] [µM] | GI50 [10] [µM] | TGI [10] [µM]
COc1ccc(-c2ccc(C3CC(c4ccccc4)=NN3)o2)c([N+](=O)[O-])c1 (configuration not stated) | > 100 | > 100 µM | 52.7 | > 100 | > 100 | > 100 | 23.2 | 72.2 µM | 25.5 | 58.5 | > 100 | > 100 | > 100 | > 100 | 57.7 | > 100 | 52.9 | > 100 | 37.3 | > 100
[N-]=[N+]=CC(=O)CCC(N)C(=O)O (configuration not stated) | 3.51 | 43 µM and > 134 µM | – | 43.2 | – | > 186 | 5.82 | 54.6 µM and 157 µM | 62.7 | > 250 | 16.2 | > 250 | 8.31 | 219 | 5.54 | > 250 | 0.812 | > 128 | 29.8 | > 250
CC(C)(C)C[C@H]1N[C@@H](C(=O)NC2CCC(O)CC2)[C@H](c2cccc(Cl)c2F)[C@@]12C(=O)Nc1cc(Cl)ccc12 (some centres not stated) | 2.07 | 16.7 µM | 11.5 | 27.7 | 3.88 | 15.2 | 3.51 | 15.4 µM | 3.64 | 13.1 | 5.98 | 22.8 | 0.646 | 11.1 | 0.375 | 10.1 | 3.67 | 16 | 3.65 | 13.5
COC1=CC(=O)O/C1=C(\OC)C1OC1c1ccccc1 (configuration not stated) | – | > 100 µM | – | > 100 | – | > 100 | – | > 100 µM | – | > 100 | – | > 100 | – | > 100 | – | > 100 | – | > 100 | – | > 100
CCOC(=O)Nc1ccc2nc(-c3cscn3)[nH]c2c1 | 6.3 | > 100 µM | 4.91 | > 100 | 26.9 | > 100 | 7.01 | > 100 µM | 18.5 | > 100 | 5.32 | > 100 | 8.77 | > 100 | 8.45 | > 100 | 3.64 | 18.9 | 10.4 | > 100
CC1CCC2C(C)C(=O)OC2C2(C)C(=O)C=CC12 (configuration not stated) | – | > 10 µM | – | > 10 | – | > 10 | – | > 10 µM | – | > 10 | – | > 10 | – | > 10 | – | > 10 | – | > 10 | – | > 10
CC1(C)CC(C)(C)c2cc(NC(=S)Nc3ccc([N+](=O)[O-])cc3)ccc2S1 | 10.5 | 29 µM | 18.3 | > 49.5 | 14.2 | 49.3 | 12.3 | 41.1 µM | 4.42 | 24.6 | 17.1 | > 52.6 | 12.4 | 39.4 | 10.1 | 24.6 | 13 | 59.4 | 9.69 | 22.4
CC1=NN(c2cccc(Cl)c2)C(=O)/C1=C\c1cn(CC(O)CN2CCCCC2)c2ccccc12 (configuration not stated) | 2.99 | 14.6 µM | 12.4 | 26.5 | 14.6 | 33.9 | 3.38 | > 100 µM | 6.12 | 19.2 | 15.8 | 36.2 | 1.73 | 7.12 | 3.18 | 14.6 | 1.73 | 3.26 | 9.81 | 26.1
Cc1cccc(C2NC(=O)c3ccccc3N2)c1 (configuration not stated) | – | > 100 µM | – | 97.1 | – | > 100 | – | > 100 µM | – | > 100 | – | > 100 | – | > 100 | – | > 100 | – | > 100 | – | > 100
Clc1ccccc1C(Nc1cnccn1)Nc1cnccn1 | – | > 100 µM | – | > 100 | – | > 100 | – | > 100 µM | – | > 100 | – | > 100 | – | > 100 | – | > 100 | – | > 100 | – | > 100
N=C1CCCC1C(=S)SCCC(N)=O (configuration not stated) | – | > 100 µM | – | > 100 | – | > 100 | – | > 100 µM | – | > 100 | – | > 100 | – | > 100 | – | > 100 | – | > 100 | – | > 100
CCCCNC(c1ccc(Cl)cc1)C(O)c1ccc(Cl)cc1 (configuration not stated) | 2.41 | 12.4 µM | 2.19 | 9.71 | 2.94 | 15.7 | 2.49 | 8.65 µM | 1.83 | 3.85 | 1.67 | 4.52 | 1.55 | 10.2 | 2.46 | 7.36 | 1.56 | 3.25 | 1.92 | 7.47
COc1ccc2c(c1)C(=O)c1c-2c(OCCCN(C)C)nc2cc(Br)ccc12 | – | 26.9 µM | 1.81 | 4.29 | 1.71 | 3.59 | 5.2 | 23.8 µM | 10.3 | 22.7 | 10.8 | 32.2 | 1.36 | 2.88 | 1.29 | 2.73 | 13.8 | > 100 | 3.04 | 7.78
O=C(Nc1n[nH]c2cc(-c3cc(F)ccc3F)ccc12)C1CC1 | > 25 | > 25 µM | 15.2 | > 25 | > 22.3 | > 25 | 10.5 | > 25 µM | 14.4 | > 25 | 11.8 | > 25 | 16.1 | > 25 | > 25 | > 25 | 13.1 | > 25 | 17.6 | > 25
O=C1NC(=NCCc2ccc(Cl)cc2)S/C1=C\c1ccc2ncccc2c1 | 17.6 | > 25 µM | 14.3 | > 25 | > 25 | > 25 | 12.5 | > 25 µM | > 25 | > 25 | 18.1 | > 25 | > 18.9 | > 25 | 24.6 | > 25 | 15.3 | > 25 | > 25 | > 25
OCc1ccc(N(Cc2ccc(F)cc2)Cc2ccc(F)cc2)cc1Cl | 2.08 | 8.07 µM | 10.9 | 23.2 | 2.11 | 11.9 | 13.1 | 33.9 µM | 14.3 | 30.8 | 3.31 | 15.4 | 3.49 | 16.2 | 10.9 | 23 | 11.7 | 24.4 | 9.08 | 22.8
O=c1c(-c2ccc3c(c2)OCO3)coc2c3c(ccc12)OCO3 | – | 59.7 µM | – | 38.2 | – | > 100 | – | > 100 µM | – | > 100 | – | > 100 | – | > 100 | – | 38.8 | – | > 100 | – | > 100
Cc1ccc(/C(=N/Nc2ccc([N+](=O)[O-])cc2)Sc2cc(Cl)c(C)cc2S(N)(=O)=O)cc1 | 2.44 | 14.6 µM | 2.35 | 5.34 | 2.45 | 6.16 | 2.11 | 4.58 µM | 1.76 | 3.66 | 3.14 | > 23.2 | 2.56 | 10.7 | 2.37 | 6.51 | 2.98 | > 23.2 | 1.79 | 4.47
CC(C)C[C@@H](N)[C@@H](O)C(=O)N[C@H](C(=O)N[C@H](C(=O)N[C@@H](CC(=O)O)C(=O)O)C(C)C)C(C)C | > 20 | > 20 µM | > 20 | > 20 | > 20 | > 20 | > 20 | > 20 µM | > 20 | > 20 | > 20 | > 20 | > 20 | > 20 | > 20 | > 20 | > 20 | > 20 | > 20 | > 20
